US10301664B2, “Repurposing non-antimicrobial drugs and clinical molecules to treat bacterial infections” (Purdue Research Foundation, priority 2015, dated 2019)
Values after ≈ are worked out from the molar mass of the structure shown. Where two headings read alike, the source gives them in different places.

Tests used:
[1] = system: Vancomycin-resistant S. aureus (VRSA); assay: MIC and MBC against vancomycin-resistant S. aureus clinical isolates (CLSI); format: cell-based
[2] = system: Methicillin resistant S. aureus (MRSA); assay: MIC and MBC against methicillin resistant S. aureus clinical isolates (CLSI); format: cell-based; settings: Staphylococcus aureus
[3] = system: Methicillin-sensitive S. aureus (MSSA); assay: MIC and MBC against methicillin-sensitive S. aureus isolates (CLSI); format: cell-based; settings: Staphylococcus aureus
[4] = system: Vancomycin-intermediate S. aureus (VISA); assay: MIC and MBC against vancomycin-intermediate S. aureus isolates (CLSI); format: cell-based; settings: Staphylococcus aureus
S. epidermidis NRS 101 = assay: MIC and MBC against S. epidermidis (CLSI); format: cell-based; settings: Staphylococcus epidermidis, NRS101
[5] = system: E. fecalis ATCC 51229 (VRE); assay: MIC and MBC against E. fecalis VRE (CLSI); format: cell-based; settings: Enterococcus
Description: The NIH Clinical Collections 1 and 2 (http://www.nihclinicalcollection.com) containing 727 FDA approved drugs and small molecules previously used in human clinical trials with known safety profiles were screened against ESKAPE pathogens. The library was initially screened at a single concentration of 16 μM to identify “hit” non-antibacterial drugs. Once the antimicrobial activity of the drugs was confirmed, we determined their MICs and minimum bactericidal concentrations (MBCs) according to the Clinical and Laboratory Standards Institute (CLSI).

[6] = system: E. faecium ATCC 700221 (VRE); assay: MIC and MBC against E. faecium VRE (CLSI), Table 1; format: cell-based; settings: Enterococcus faecium
[7] = system: clinical isolates of S. aureus; assay: MIC90 over clinical isolates of S. aureus; format: cell-based; settings: Staphylococcus aureus, Table 1, read-out: MIC90 (MIC at which 90% of clinical isolates of S. aureus were inhibited)
MRSA USA300 = assay: Library hits: MIC/MBC against MRSA; format: cell-based, Staphylococcus aureus; settings: Staphylococcus aureus
[8] = system: vancomycin resistant E. faecium ATCC 700221 (VRE); assay: Library hits: MIC/MBC against VRE; format: cell-based; settings: VRE
A. baumannii = assay: MIC against G-ve with and without colistin: A. baumannii; format: cell-based
K. pneumonia = assay: MIC against G-ve with and without colistin: K. pneumonia; format: cell-based; settings: without colistin
[9] = system: Colistin resistant clinical isolates of P. aeruginosa; assay: MIC against G-ve with and without colistin: colistin resistant P. aeruginosa; format: cell-based; settings: without colistin
MRSA USA200 = format: in vivo, BALB/c mice; settings: oral, EB 30 mg/kg or FdUrd 25 mg/kg once daily for three days, monitored six days
Description: Animal procedures were approved by the Purdue University Animal Care and Use Committee (PACUC) (protocol no. 1311000988). Eight-week-old female BALB/c mice (Harlan Laboratories, Indianapolis, Ind.) were used for this study. Mice were rendered neutropenic by treatment with cyclophosphamide intraperitoneally (IP) 150 and 100 mg/kg at four days and one day before infection, respectively. Neutropenic mice were inoculated IP with 8×10^8 MRSA USA200. At one hour after infection, the mice were divided into five groups (n=10 per group), and two groups were treated orally with either EB 30 mg/kg or FdUrd 25 mg/kg. Two groups were treated IP with either EB 30 mg/kg or FdUrd 25 mg/kg. One group was used as a control with no treatment. Treatment was continued once daily for two more days (animals received three doses total). Mortality was monitored four times daily for six days, and the cumulative percent survival was determined. The data were subjected to statistical analysis using Kaplan-Meier survival curves. A log rank test was performed for 95% confidence intervals by GraphPad Prism 6.0 (GraphPad Software, La Jolla, Calif.).

O=c1c2ccccc2[se]n1-c1ccccc1 [Ebselen]
MIC ([1]; Staphylococcus aureus, VRSA): 0.125 µg/mL (≈ 0.456 µM)
MBC ([1]; Staphylococcus aureus, VRSA, VRSA1, read-out: MBC): 0.25 µg/mL (≈ 0.912 µM)
MIC ([1]; Staphylococcus aureus, VRSA, VRSA1, read-out: MIC): 0.25 µg/mL (≈ 0.912 µM)
MBC ([1]; Staphylococcus aureus, VRSA, VRSA2, read-out: MBC): 0.25 µg/mL (≈ 0.912 µM)
MIC ([1]; Staphylococcus aureus, VRSA, VRSA2, read-out: MIC): 0.25 µg/mL (≈ 0.912 µM)
MBC ([1]; Staphylococcus aureus, VRSA, VRSA3a, read-out: MBC): 0.25 µg/mL (≈ 0.912 µM)
MIC ([1]; Staphylococcus aureus, VRSA, VRSA3a, read-out: MIC): 0.25 µg/mL (≈ 0.912 µM)
MBC ([1]; Staphylococcus aureus, VRSA, VRSA3b, read-out: MBC): 1 µg/mL (≈ 3.65 µM)
MIC ([1]; Staphylococcus aureus, VRSA, VRSA3b, read-out: MIC): 0.25 µg/mL (≈ 0.912 µM)
MBC ([1]; Staphylococcus aureus, VRSA, VRSA4): 0.125 µg/mL (≈ 0.456 µM)
MBC ([1]; Staphylococcus aureus, VRSA, VRSA5, read-out: MBC): 0.25 µg/mL (≈ 0.912 µM)
MIC ([1]; Staphylococcus aureus, VRSA, VRSA5, read-out: MIC): 0.25 µg/mL (≈ 0.912 µM)
MBC ([1]; Staphylococcus aureus, VRSA, VRSA6, read-out: MBC): 0.5 µg/mL (≈ 1.82 µM)
MIC ([1]; Staphylococcus aureus, VRSA, VRSA6, read-out: MIC): 0.25 µg/mL (≈ 0.912 µM)
MBC ([1]; Staphylococcus aureus, VRSA, VRSA7, read-out: MBC): 0.5 µg/mL (≈ 1.82 µM)
MIC ([1]; Staphylococcus aureus, VRSA, VRSA7, read-out: MIC): 0.5 µg/mL (≈ 1.82 µM)
MBC ([1]; Staphylococcus aureus, VRSA, VRSA8): 0.125 µg/mL (≈ 0.456 µM)
MBC ([1]; Staphylococcus aureus, VRSA, VRSA9, read-out: MBC): 0.5 µg/mL (≈ 1.82 µM)
MIC ([1]; Staphylococcus aureus, VRSA, VRSA9, read-out: MIC): 0.25 µg/mL (≈ 0.912 µM)
MBC ([1]; Staphylococcus aureus, VRSA, VRSA10, read-out: MBC): 0.25 µg/mL (≈ 0.912 µM)
MIC ([1]; Staphylococcus aureus, VRSA, VRSA10, read-out: MIC): 0.25 µg/mL (≈ 0.912 µM)
MBC ([1]; Staphylococcus aureus, VRSA, VRSA11b, read-out: MBC): 0.25 µg/mL (≈ 0.912 µM)
MIC ([1]; Staphylococcus aureus, VRSA, VRSA11b, read-out: MIC): 0.25 µg/mL (≈ 0.912 µM)
MBC ([1]; Staphylococcus aureus, VRSA, VRSA12, read-out: MBC): 0.5 µg/mL (≈ 1.82 µM)
MIC ([1]; Staphylococcus aureus, VRSA, VRSA12, read-out: MIC): 0.25 µg/mL (≈ 0.912 µM)
MBC ([1]; Staphylococcus aureus, VRSA, VRSA13, read-out: MBC): 0.25 µg/mL (≈ 0.912 µM)
MIC ([1]; Staphylococcus aureus, VRSA, VRSA13, read-out: MIC): 0.25 µg/mL (≈ 0.912 µM)
MIC ([1]; VRSA8): 0.125/0.125 mg/L
MIC ([1]; VRSA11a): 0.125 µg/mL (≈ 0.456 µM)
MBC ([2]; MRSA / NRS 70, read-out: MBC): 0.25 µg/mL (≈ 0.912 µM)
MIC ([2]; MRSA / NRS 70, read-out: MIC): 0.25 µg/mL (≈ 0.912 µM)
MBC ([2]; MRSA / NRS 71, read-out: MBC): 0.25 µg/mL (≈ 0.912 µM)
MIC ([2]; MRSA / NRS 71, read-out: MIC): 0.25 µg/mL (≈ 0.912 µM)
MBC ([2]; MRSA / NRS 100, read-out: MBC): 0.5 µg/mL (≈ 1.82 µM)
MIC ([2]; MRSA / NRS 100, read-out: MIC): 0.25 µg/mL (≈ 0.912 µM)
MBC ([2]; MRSA / NRS 108, read-out: MBC): 0.25 µg/mL (≈ 0.912 µM)
MIC ([2]; MRSA / NRS 108, read-out: MIC): 0.25 µg/mL (≈ 0.912 µM)
MBC ([2]; MRSA / NRS 119): 0.25 µg/mL (≈ 0.912 µM)
MIC ([2]; MRSA / NRS 119): 0.125 µg/mL (≈ 0.456 µM)
MBC ([2]; MRSA / NRS 123, read-out: MBC): 0.5 µg/mL (≈ 1.82 µM)
MIC ([2]; MRSA / NRS 123, read-out: MIC): 0.25 µg/mL (≈ 0.912 µM)
MBC ([2]; MRSA / NRS 194, read-out: MBC): 1 µg/mL (≈ 3.65 µM)
MIC ([2]; MRSA / NRS 194, read-out: MIC): 0.25 µg/mL (≈ 0.912 µM)
MBC ([2]; MRSA / NRS 382): 0.125 µg/mL (≈ 0.456 µM)
MIC ([2]; MRSA / NRS 382): 0.125 µg/mL (≈ 0.456 µM)
MBC ([2]; MRSA / NRS 383): 0.125 µg/mL (≈ 0.456 µM)
MIC ([2]; MRSA / NRS 383): 0.125 µg/mL (≈ 0.456 µM)
MBC ([2]; MRSA / NRS 384): 0.125 µg/mL (≈ 0.456 µM)
MIC ([2]; MRSA / NRS 384): 0.125 µg/mL (≈ 0.456 µM)
MBC ([2]; MRSA / NRS 385, NRS 385, read-out: MBC): 1 µg/mL (≈ 3.65 µM)
MIC ([2]; MRSA / NRS 385, NRS 385, read-out: MIC): 0.5 µg/mL (≈ 1.82 µM)
MBC ([2]; MRSA / NRS 386): 1 µg/mL (≈ 3.65 µM)
MIC ([2]; MRSA / NRS 386): 0.125 µg/mL (≈ 0.456 µM)
MBC ([2]; MRSA / NRS 387): 0.25 µg/mL (≈ 0.912 µM)
MIC ([2]; MRSA / NRS 387): 0.125 µg/mL (≈ 0.456 µM)
MBC ([2]; MRSA / NRS 483): 0.5 µg/mL (≈ 1.82 µM)
MIC ([2]; MRSA / NRS 483): 0.125 µg/mL (≈ 0.456 µM)
MBC ([2]; MRSA / NRS 484, NRS 484, read-out: MBC): 0.25 µg/mL (≈ 0.912 µM)
MIC ([2]; MRSA / NRS 484, NRS 484, read-out: MIC): 0.25 µg/mL (≈ 0.912 µM)
MBC ([3]; MSSA / NRS 72, read-out: MBC): 0.5 µg/mL (≈ 1.82 µM)
MIC ([3]; MSSA / NRS 72, read-out: MIC): 0.25 µg/mL (≈ 0.912 µM)
MBC ([3]; MSSA / NRS 77, read-out: MBC): 1 µg/mL (≈ 3.65 µM)
MIC ([3]; MSSA / NRS 77, read-out: MIC): 0.25 µg/mL (≈ 0.912 µM)
MBC ([3]; MSSA / NRS 846): > 64 µg/mL
MIC ([3]; MSSA / NRS 846): 0.125 µg/mL (≈ 0.456 µM)
MBC ([3]; MSSA / NRS 860, read-out: MBC): 0.25 µg/mL (≈ 0.912 µM)
MIC ([3]; MSSA / NRS 860, read-out: MIC): 0.25 µg/mL (≈ 0.912 µM)
MBC ([4]; NRS 1 / VISA): 0.125 µg/mL (≈ 0.456 µM)
MIC ([4]; NRS 1 / VISA): 0.125 µg/mL (≈ 0.456 µM)
MBC ([4]; NRS 37 / VISA): 0.125 µg/mL (≈ 0.456 µM)
MIC ([4]; NRS 37 / VISA): 0.125 µg/mL (≈ 0.456 µM)
MBC (S. epidermidis NRS 101): 0.5 µg/mL (≈ 1.82 µM)
MIC (S. epidermidis NRS 101): 0.5 µg/mL (≈ 1.82 µM)
MBC [5]: 0.5 µg/mL (≈ 1.82 µM)
MIC [5]: 0.5 µg/mL (≈ 1.82 µM)
MBC [6]: 1 µg/mL (≈ 3.65 µM)
MIC [6]: 0.5 µg/mL (≈ 1.82 µM)
MIC90 [7]: 0.25 µg/mL (≈ 0.912 µM)
MBC (MRSA USA300; read-out: MBC): 0.5 µM (≈ 0.137 µg/mL)
MIC (MRSA USA300; read-out: MIC): < 0.5 µM
MBC [8]: 1 µM (≈ 0.274 µg/mL)
MIC ([8]; read-out: MIC): 0.5 µM (≈ 0.137 µg/mL)
MIC, colistin (+) (A. baumannii; with sub-inhibitory colistin 0.0625 μg/ml): 0.25 µg/mL (≈ 0.912 µM)
MIC, colistin (−) (A. baumannii; without colistin): 16 µg/mL (≈ 58.4 µM)
MIC, colistin (−) (K. pneumonia): 64 µg/mL (≈ 233 µM)
MIC, colistin (−) [9]: >256 µg/mL
mice survival compared to that of control (MRSA USA200): 60%
